Results from US8394834B2, “Pyrrolidines as NK3 receptor antagonists” (Hoffman-La Roche Inc., priority 2009, dated 2013).
Blank lines part the entries; values can stand above or below the compound they belong to.

Legend:
[1] = biological target: T1, recombinant human NK3 receptor (Homo sapiens, UniProt P29371); assay: [3H]SR142801 competition binding assay; settings: hNK3 receptor, membranes from HEK293 cells transiently expressing the receptor, [3H]SR142801 radioligand
T1 construct: expressed in transfected cells; host or cells: HEK293 cells (transient expression), membranes
T1 sequence (P29371 1-465): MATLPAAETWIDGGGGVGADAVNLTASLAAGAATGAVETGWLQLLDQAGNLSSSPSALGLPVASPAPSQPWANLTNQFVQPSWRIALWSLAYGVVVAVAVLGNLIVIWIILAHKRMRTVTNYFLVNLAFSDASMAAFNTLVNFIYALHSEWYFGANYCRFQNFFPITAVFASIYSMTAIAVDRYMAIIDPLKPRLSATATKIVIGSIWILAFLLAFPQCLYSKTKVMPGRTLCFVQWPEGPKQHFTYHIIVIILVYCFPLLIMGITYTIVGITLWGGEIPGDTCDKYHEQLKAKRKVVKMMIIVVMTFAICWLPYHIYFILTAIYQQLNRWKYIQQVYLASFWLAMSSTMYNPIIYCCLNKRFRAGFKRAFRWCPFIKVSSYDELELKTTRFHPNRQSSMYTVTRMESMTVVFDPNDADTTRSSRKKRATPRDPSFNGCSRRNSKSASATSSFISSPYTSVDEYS
Experimental: [^3H]SR142801 Competition Binding Assay
hNK3 receptor binding experiment were performed using [^3H]SR142801 (Catalog No. TRK1035, specific activity: 74.0 Ci/mmol, Amersham, GE Healthcare UK limited, Buckinghamshire, UK) and membrane isolated from HEK293 cells transiently expressing recombinant human NK3 receptor. After thawing, the membrane homogenates were centrifuged at 48,000×g for 10 min at 4° C., the pellets were resuspended in the 50 mM Tris-HCl, 4 mM MnCl2, 1 μM phosphoramidon, 0.1% BSA binding buffer at pH 7.4 to a final assay concentration of 5 μg protein/well. For inhibition experiments, membranes were incubated with [^3H]SR142801 at a concentration equal to KD value of radioligand and 10 concentrations of the inhibitory compound (0.0003-10 μM) (in a total reaction volume of 500 μl) for 75 min at room temperature (RT). At the end of the incubation, membranes were filtered onto unitfilter (96-well white microplate with bonded GF/C filter preincubated 1 h in 0.3% PEI+0.3% BSA, Packard BioScience, Meriden, Conn.) with a Filtermate 196 harvester (Packard BioScience) and washed 4 times with ice-cold 50 mM Tris-HCl, pH 7.4 buffer. Nonspecific binding was measured in the presence of 10 μM SB222200 for both radioligands. The radioactivity on the filter was counted (5 min) on a Packard Top-count microplate scintillation counter with quenching correction after addition of 45 μl of microscint 40 (Can berra Packard S. A., Zürich, Switzerland) and shaking for 1 h. Inhibition curves were fitted according to the Hill equation: […]), where nH=slope factor using Excel-fit 4 software (Microsoft). IC50 values were derived from the inhibition curve and the affinity constant (Ki) values were calculated using the Cheng-Prussoff equation Ki=IC50/(1+[L]/KD) where [L] is the concentration of radioligand and KD is its dissociation constant at the receptor, derived from the saturation isotherm. All experiments were performed in duplicate and the mean±standard error (SEM) of the individual Ki values was calculated.

schizophrenia = settings: phase II trial, cited from earlier work

SMILES: Cc1ccc(N2CCC(C(=O)N3C[C@H]([C@H](C)Oc4ccc(C#N)cn4)[C@@H](c4ccc(F)c(F)c4)C3)CC2)nn1 [Example 21, 6-((S)-1-{(3R,4S)-4-(3,4-Difluoro-phenyl)-1-[1-(6-methyl-pyridazin-3-yl)-piperidine-4-carbonyl]-pyrrolidin-3-yl}-ethoxy)-nicotinonitrile]
Ki [1]: 2.8 nM

SMILES: C[C@H](Oc1ccc(C#N)cn1)[C@H]1CN(C(=O)C2CCN(c3ccc(C#N)cn3)CC2)C[C@@H]1c1ccc(F)c(F)c1 [Example 19, 4-[(3R,48)-3-[1-((S)-5-Cyano-pyridin-2-yloxy)-ethyl]-4-(3,4-difluoro-phenyl)-pyrrolidine-1-carbonyl]-3,4,5,6-tetrahydro-2H-[1,2′]bipyridinyl-5′-carbonitrile]
Ki [1]: 1.2 nM

SMILES: C[C@H](Oc1ccc(Cl)cn1)[C@H]1CN(C(=O)C2CCN(c3ncccc3C#N)CC2)C[C@@H]1c1ccc(Cl)cc1 [Example 10, 4-{(3S,4R)-3-(4-Chloro-phenyl)-4-[1-((S)-5-chloro-pyridin-2-yloxy)-ethyl]-pyrrolidine-1-carbonyl}-3,4,5,6-tetrahydro-2H-[1,2′]bipyridinyl-3′-carbonitrile]
Ki [1]: 6.1 nM

SMILES: C[C@H](Oc1ccc(Cl)cn1)[C@H]1CN(C(=O)C2CCN(c3ncccn3)CC2)C[C@@H]1c1ccc(Cl)cc1 [Example 3, {(3S,4R)-3-(4-Chloro-phenyl)-4-[1-((S)-5-chloro-pyridin-2-yloxy)-ethyl]-pyrrolidin-1-yl}-(1-pyrimidin-2-yl-piperidin-4-yl)-methanone]
Ki [1]: 2.1 nM

SMILES: C[C@H](Oc1ccc(Cl)cn1)[C@H]1CN(C(=O)C2CCN(c3cnccn3)CC2)C[C@@H]1c1ccc(Cl)cc1 [Example 2, {(3S,4R)-3-(4-Chloro-phenyl)-4-[1-((S)-5-chloro-pyridin-2-yloxy)-ethyl]-pyrrolidin-1-yl}-(1-pyrazin-2-yl-piperidin-4-yl)-methanone]
Ki [1]: 1.9 nM

SMILES: CC(=O)N(C)C1(c2ccccc2)CCN(CCC[C@]2(c3ccc(Cl)c(Cl)c3)CCCN(C(=O)c3ccccc3)C2)CC1 [SR 142,801, Osanetant]
activity on positive symptoms of schizophrenia (schizophrenia; altered behaviour, delusion, hallucinations, extreme emotions, excited motor activity, incoherent speech): active | activity in the treatment of negative symptoms (schizophrenia; depression, anhedonia, social isolation or memory and attention deficits): inactive

SMILES: C[C@H](Oc1ccc(F)cn1)[C@H]1CN(C(=O)C2CCN(c3ccc(C#N)cn3)CC2)C[C@@H]1c1ccc(Cl)cc1 [Example 7, 4-{(3S,4R)-3-(4-Chloro-phenyl)-4-[1-((S)-5-fluoro-pyridin-2-yloxy)-ethyl]-pyrrolidine-1-carbonyl}-3,4,5,6-tetrahydro-2H-[1,2′]bipyridinyl-5′-carbonitrile]
Ki [1]: 1.2 nM

Now from value to compound:

Ki [1]: 0.5 nM
SMILES: COc1ccc(N2CCC(C(=O)N3C[C@H]([C@H](C)Oc4ccc(Cl)cn4)[C@@H](c4ccc(Cl)cc4)C3)CC2)cn1 [Example 15, {(3S,4R)-3-(4-Chloro-phenyl)-4-[1-((S)-5-chloro-pyridin-2-yloxy)-ethyl]-pyrrolidin-1-yl}-(6′-methoxy-3,4,5,6-tetrahydro-2H-[1,3,′]bipyridinyl-4-yl)-methanone]

Ki [1]: 0.8 nM
SMILES: C[C@H](Oc1ccc(Cl)cn1)[C@H]1CN(C(=O)C2CCN(c3ccc(C(F)(F)F)cn3)CC2)C[C@@H]1c1ccc(Cl)cc1 [Example 4, {(3S,4R)-3-(4-Chloro-phenyl)-4-[1-((S)-5-chloro-pyridin-2-yloxy)-ethyl]-pyrrolidin-1-yl}-(5′-trifluoromethyl-3,4,5,6-tetrahydro-2H-[1,2′]bipyridinyl-4-yl)-methanone]

Ki [1]: 0.5 nM
SMILES: CC(=O)c1ccc(N2CCC(C(=O)N3C[C@H]([C@H](C)Oc4ccc(Cl)cn4)[C@@H](c4ccc(Cl)cc4)C3)CC2)nc1 [Example 9, 1-(4-{(3S,4R)-3-(4-Chloro-phenyl)-4-[1-((S)-5-chloro-pyridin-2-yloxy)-ethyl]-pyrrolidine-1-carbonyl}-3,4,5,6-tetrahydro-2H-[1,2′]bipyridinyl-5′-yl)-ethanone]

Ki [1]: 1.2 nM
SMILES: COc1ccc(N2CCC(C(=O)N3C[C@H]([C@H](C)Oc4ccc(Cl)cn4)[C@@H](c4ccc(Cl)cc4)C3)CC2)nn1 [Example 14, {(3S,4R)-3-(4-Chloro-phenyl)-4-[1-((S)-5-chloro-pyridin-2-yloxy)-ethyl]-pyrrolidin-1-yl}-[1-(6-methoxy-pyridazin-3-yl)-piperidin-4-yl]-methanone]

Ki [1]: 0.9 nM
SMILES: C[C@H](Oc1ccc(Cl)cn1)[C@H]1CN(C(=O)C2CCN(c3ccc(C#N)cn3)CC2)C[C@@H]1c1ccc(F)c(F)c1 [Example 20, 4-[(3R,4S)-3-[1-((S)-5-Chloro-pyridin-2-yloxy)-ethyl]-4-(3,4-difluoro-phenyl)-pyrrolidine-1-carbonyl]-3,4,5,6-tetrahydro-2H-[1,2′]bipyridinyl-5′-carbonitrile]
